Tested on: IL-1β secretion, THP-1 cells
Experiment: IL-1β secretion assay in PMA-differentiated THP-1 cells (LPS + nigericin stimulation, IL-1β ELISA)
Type: cell-based
Conditions: LPS 25 ng/mL, IL-1β by ELISA
Description: Compounds as provided herein were tested in the following assay. Cell culture medium employed contained RPMI 1640 medium (89%), FBS (10%), Pen/Strep (1%), and 2-mercaptoethanol (0.05 mm). Freezing medium was made up of 90% FBS and 10% DMSO. THP-1 cells were removed from the liquid nitrogen and placed into a 37° C. water bath to thaw, until signs of ice dissipated. The cells were then added to 9 mL of warm cell culture medium and centrifuged for 5 minutes at 1000 rpm. The supernatant was discarded, and the cells were resuspended in new cell culture medium. THP-1 cells were then split and cultured in the cell culture medium, being passaged every 2-3 days with the cell density will be maintained between 5×10^5 and 1.5×10^6 viable cells/mL.
Procedure for […], Secretion Assay in 384-Well Plates
PMA was dissolved in DMSO to make a stock solution at 5 mg/mL and stored in 10 μl aliquots at −20° C. for single use. PMA is added to normal growth medium. LPS was diluted with 1 mL of water solution to provide a 1 mg/mL stock solution and stored in 15 μl aliquots at −20° C. for single use. Nigericin is diluted in ice cold 100% ethanol to 5 mg/mL (6.7 mM) and stored in 75 μL aliquots at −20° C. for single use. Serum-free media contains RPMI 1640 medium (99%), Pen/Strep (1%), and 2-mercaptoethanol (0.05 mM). The two control conditions used to qualify and normalize test compound dose-response curves were as follows: High Control=25 ng/mL LPS, 5 μM Nigericin, 0.5% DMSO, Low Control=25 ng/mL, LPS, 0.5% DMSO.
THP-1 cells were diluted to provide a suspension at a concentration of 1.0×10^6 cells/mL with the total volume of suspension required to enable the desired number of assay plates. The growth media was supplemented with PMA (5 ng/mL final concentration) and the cells were incubated at 37° C. under a humidified atmosphere of 5% CO2 for 40 h.
All media was carefully aspirated from each culture flask. The cells were washed carefully with 1×DPBS. The cells were then briefly digested with trypsin LE for 5 minutes at 23° C. and immediately resuspended in cell growth media. After resuspension, the cells were centrifuged at 1000 rpm for 3 minutes and the supernatant was discarded. The cells were resuspended in DPBS and once again centrifuged at 1000 rpm for 5 minutes. The supernatant was discarded and the cell pellet was resuspended in serum-free media supplemented with LPS (25 ng/mL final concentration) to enable the distribution of 30K THP-1 cells within 45 μL of media into each well of 384-well PDL-coated plates. The 384-well plates were then incubated at 37° C. under a humidified atmosphere of 5% CO2 for 2 h. Following this period, test compounds were dispensed by Tecan across the desired concentration range with all wells normalized to a final 0.5% DMSO concentration. The plates were then incubated at 37° C. under a humidified atmosphere of 5% CO2 for 1 h. Following this period, 5 μL of the 5 mg/mL nigericin stock solution was added to each of the appropriate wells and plates were centrifuged at 1000 rpm for 30 seconds. The plates were the immediately reintroduced to the incubator at 37° C. under a humidified atmosphere of 5% CO2 for 2 h. After this time, 35 μL/well of supernatant was collected and transferred into v-bottom plate and centrifuged at 1000 rpm for 1 minute. These supernatant aliquots were analyzed using an IL-Iβ detection kit as described below. If needed, the test samples could be snap frozen and stored at −80° C. until analyzed.
To prepare each ELISA plate, capture antibody (mAb Mt175) was diluted with PBS to a final concentration of 2 μg/mL and then 20 μL of this solution was added to each well of the ELISA plate. Each plate was allowed to incubate overnight at 4° C. The next day, the capture antibody solution was removed and discarded. Each ELISA plate was washed 4 times with PBST followed by the addition of 25 μL/well of blocking buffer (Licor-927-40010) supplemented with 0.1% Tween 20. […]

[1] = Homo sapiens, THP-1, class symbol
[2] = Homo sapiens, THP-1, numeric value

| Compound | IC50 [1] | IC50 (numeric value) | IC50 (class symbol) | IC50 [2] |
| --- | --- | --- | --- | --- |
| C[C@H]1C[C@@]12C(=O)N(CC(=O)Nc1ncc(F)cn1)C(=O)c1ccc(Br)cc12 (single isomer, unassigned) [Example 13, N-(5-fluoropyrimidin-2-yl)-2-[(1r,2s)-6′-bromo-2-methyl-1′,3′-dioxospiro[cyclopropane-1,4′-isoquinoline]-2′-yl]acetamide] | < 10 µM | 0.286 µM |  |  |
| C[C@H]1C[C@@]12C(=O)N(CC(=O)Nc1ncc(F)cn1)C(=O)c1ccc(Br)cc12 (single isomer, unassigned) [Example 14, N-(5-fluoropyrimidin-2-yl)-2-[(1r,2s)-6′-bromo-2-methyl-1′,3′-dioxospiro[cyclopropane-1,4′-isoquinoline]-2′-yl]acetamide] |  | 6.66 µM | < 10 µM |  |
| CC1(C)C(=O)N(CC(=O)Nc2ncc(F)cn2)C(=O)c2ccc(Br)cc21 [Example 7] | < 10 µM |  |  | 0.269 µM |
| O=C(CN1C(=O)c2ccc(Br)cc2C2(CCC2)C1=O)Nc1ncc(F)cn1 [Example 8, 2-(6′-bromo-1′,3′-dioxospiro[cyclobutane-1,4′-isoquinoline]-2′-yl)-N-(5-fluoropyrimidin-2-yl)acetamide] | < 10 µM |  |  | 0.388 µM |
| O=C(CN1C(=O)c2ccc(Br)cc2C2(CC2)C1=O)N[C@@H]1CCCN(C2CCC2)C1 [Example 9, 2-(6′-bromo-1′,3′-dioxospiro[cyclopropane-1,4′-isoquinoline]-2′-yl)-N-[(3R)-1-cyclobutylpiperidin-3-yl]acetamide] | < 10 µM |  |  | 0.307 µM |
| O=C(CN1C(=O)c2ccc(Br)cc2C2(CC(F)(F)C2)C1=O)Nc1ncc(F)cn1 [Example 10, 2-(6′-bromo-1,1-difluoro-1′,3′-dioxospiro[cyclobutane-3,4′-isoquinoline]-2′-yl)-N-(5-fluoropyrimidin-2-yl)acetamide] | 10 to 15 µM |  |  | 13.1 µM |
| O=C(CN1C(=O)c2ccc(C3CC3)c(F)c2C2(CC2)C1=O)Nc1ncc(F)cn1 [Example 11, 2-(6′-cyclopropyl-5′-fluoro-1′,3′-dioxospiro[cyclopropane-1,4′-isoquinoline]-2′-yl)-N-(5-fluoropyrimidin-2-yl)acetamide] | < 10 µM |  |  | 0.332 µM |
| O=C(CN1C(=O)c2ccc(Br)cc2C2(CCCC2)C1=O)Nc1ncc(F)cn1 [Example 12, 2-(6′-bromo-1′,3′-dioxospiro[cyclopentane-1,4′-isoquinoline]-2′-yl)-N-(5-fluoropyrimidin-2-yl)acetamide] | < 10 µM |  |  | 1.36 µM |
| O=C(CN1C(=O)c2ccc(C(F)(F)F)cc2C2(CC2)C1=O)Nc1ncc(F)cn1 [Example 15, 2-[1′,3′-dioxo-6′-(trifluoromethyl)spiro[cyclopropane-1,4′-isoquinoline]-2′-yl]-N-(5-fluoropyrimidin-2-yl)acetamide] | < 10 µM |  |  | 0.893 µM |
| O=C(CN1C(=O)c2ccc(C(F)(F)F)c(F)c2C2(CC2)C1=O)Nc1ncc(F)cn1 [Example 16, 2-[5′-fluoro-1′,3′-dioxo-6′-(trifluoromethyl)spiro[cyclopropane-1,4′-isoquinoline]-2′-yl]-N-(5-fluoropyrimidin-2-yl)acetamide] | < 10 µM |  |  | 0.918 µM |
| CC1(C(F)(F)F)C(=O)N(CC(=O)Nc2ncc(F)cn2)C(=O)c2ccc(Br)cc21 (stereo not shown) [Example 17, 2-[6-bromo-4-methyl-1,3-dioxo-4-(trifluoromethyl)isoquinolin-2-yl]-N-(5-fluoropyrimidin-2-yl)acetamide] | < 10 µM |  |  | 2.4 µM |
| N#Cc1cnc(NC(=O)CN2C(=O)c3ccc(Br)c(F)c3C3(CC3)C2=O)c(F)c1 [Example 18, 2-(6′-bromo-5′-fluoro-1′,3′-dioxospiro[cyclopropane-1,4′-isoquinoline]-2′-yl)-N-(5-cyano-3-fluoropyridin-2-yl)acetamide] | < 10 µM |  |  | 0.331 µM |
| O=C(CN1C(=O)c2ccc(Br)cc2C2(COC2)C1=O)Nc1ncc(F)cn1 [Example 19, 2-(6-bromo-1,3-dioxospiro[isoquinoline-4,3′-oxetane]-2-yl)-N-(5-fluoropyrimidin-2-yl)acetamide] | < 10 µM |  |  | 4.46 µM |
| Cc1cnc(NC(=O)CN2C(=O)c3ccc(Br)c(F)c3C3(CC3)C2=O)nc1 [Example 20, 2-(6′-bromo-5′-fluoro-1′,3′-dioxospiro[cyclopropane-1,4′-isoquinoline]-2′-yl)-N-(5-methylpyrimidin-2-yl)acetamide] | < 10 µM |  |  | 0.261 µM |
| CC(C(=O)Nc1ncc(F)cn1)N1C(=O)c2ccc(Br)c(F)c2C2(CC2)C1=O (stereo not shown) [Example 21, 2-(6′-bromo-5′-fluoro-1′,3′-dioxospiro[cyclopropane-1,4′-isoquinoline]-2′-yl)-N-(5-fluoropyrimidin-2-yl)propanamide] | < 10 µM |  |  | 0.936 µM |
| O=C1c2ccc(Br)cc2C2(CC2)C(=O)N1C1(C(=O)Nc2ncc(F)cn2)CC1 [Example 22, 1-(6′-bromo-1′,3′-dioxospiro[cyclopropane-1,4′-isoquinoline]-2′-yl)-N-(5-fluoropyrimidin-2-yl)cyclopropane-1-carboxamide] | < 10 µM |  |  | 8.08 µM |
| CCC(C(=O)Nc1ncc(F)cn1)N1C(=O)c2ccc(Br)cc2C2(CC2)C1=O (stereo not shown) [Example 23, 2-(6′-bromo-1′,3′-dioxospiro[cyclopropane-1,4′-isoquinoline]-2′-yl)-N-(5-fluoropyrimidin-2-yl)butanamide] | < 10 µM |  |  | 2.17 µM |
| O=C(CN1C(=O)c2ccc(Br)c(F)c2C2(CC2)C1=O)Nc1ncc2cn[nH]c2n1 [Example 24, 2-(6′-bromo-5′-fluoro-1′,3′-dioxospiro[cyclopropane-1,4′-isoquinoline]-2′-yl)-N-(1H-pyrazolo[3,4-d]pyrimidin-6-yl)acetamide] | < 10 µM |  |  | 0.088 µM |
| CC1CC12C(=O)N(CC(=O)Nc1ncc(F)cn1)C(=O)c1ccc(Br)cc12 (stereo not shown) [Example 25, 2-(6′-bromo-2-methyl-1′,3′-dioxospiro[cyclopropane-1,4′-isoquinoline]-2′-yl)-N-(5-fluoropyrimidin-2-yl)acetamide] | < 10 µM |  |  | 0.391 µM |
| N#Cc1cnc(NC(=O)CN2C(=O)c3ccc(Br)c(F)c3C3(CC3)C2=O)nc1 [Example 26, 2-(6′-bromo-5′-fluoro-1′,3′-dioxospiro[cyclopropane-1,4′-isoquinoline]-2′-yl)-N-(5-cyanopyrimidin-2-yl)acetamide] | < 10 µM |  |  | 0.09 µM |
| O=C(CN1C(=O)c2ccc(Br)c(F)c2C2(CC2)C1=O)Nc1ncc(F)cn1 [Example 29, 2-(6′-bromo-5′-fluoro-1′,3′-dioxospiro[cyclopropane-1,4′-isoquinoline]-2′-yl)-N-(5-fluoropyrimidin-2-yl)acetamide] | < 10 µM |  |  | 0.099 µM |
| N#Cc1cnc(NC(=O)CN2C(=O)c3ccc(Br)cc3C3(CC3)C2=O)nc1 [Example 31, 2-(6′-bromo-1′,3′-dioxospiro[cyclopropane-1,4′-isoquinoline]-2′-yl)-N-(5-cyanopyrimidin-2-yl)acetamide] | < 10 µM |  |  | 0.208 µM |
| O=C(CN1C(=O)c2ccc(Br)cc2C2(CC2)C1=O)Nc1ncc(Cl)cn1 [Example 32, 2-(6′-bromo-1′,3′-dioxospiro[cyclopropane-1,4′-isoquinoline]-2′-yl)-N-(5-chloropyrimidin-2-yl)acetamide] | < 10 µM |  |  | 0.137 µM |

Source: patent publication US20240254132A1, “COMPOUNDS, COMPOSITIONS AND METHODS” (Denali Therapeutics Inc., priority 2021, published 2024)
